# Key:
# [1] = system: hippocampal neurogenesis (Dentate Gyrus); assay: in vivo neurogenesis assay (BrdU+ cells in dentate gyrus); design: species or system mice; details: living mice; vehicle (DMSO) 7.3
# Summary of the method: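 New hippocampal cells were tracked by daily BrdU injections and anti-BrdU staining of brain sections. Adult mice (two per pool of ten compounds) got week-long intracerebroventricular infusion by mini-pump, dosed for mid-nanomolar exposure.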
# [2] = system: U2OS cells; assay: doxorubicin toxicity (dox:tox) protection assay, Cell Titer Glo cell survival; format: cell-based; details: cultured U2OS cells
# Description: FIGS. 2A-2D. […] (FIG. 2A) Chemical structure of P7C3-S326. […] (FIG. 2C) Formulas used for calculating doxorubicin toxicity (dox:tox) protection activity. Protection activity is expressed by (Sinf−S0)/AC50 in the twelve-point dose response curve (DRC) corresponding to each compound, wherein both efficacy and potency of compounds were considered. Sinf represents the expected maximal protection. S0 is the baseline. […] In the photo-crosslinking assays, the p70 band intensity was quantified by Image J, and compared the sample of P7C3-S326 alone with that of P7C3-S326 plus competitor. Pearson correlation coefficient (r) and two tailed P value were determined by GraphPad Prism 6 and Spearman Rank Correlation (v1.0.1) software.
# FIG. 10. Twelve-point dose response curves (DRC) of all tested compounds in doxorubicin toxicity protection assay. […] Cell viability was determined by Cell Titer Glo assay kit.
# (§1) Cell survival assay was performed in 96-well plates using CellTiter-Glo Luminescent Cell Viability Assay kit (Promega) that measures cellular ATP content. The CellTiter-Glo reagent was diluted by adding 2 volumes of PBS containing 1% Triton X-100. 50 μl of diluted reagent was directly added to 100 μl of cell culture medium per well. Plates were incubated at room temperature for 10 minutes. Luminescence was recorded by Tecan […]luor Plus reader (Tecan). Cell survival was presented as the percentage of viable cells compared with untreated control, and mean±SD was calculated from duplicates. The dox:tox assay of P7C3 analogs was carried out in the HTS Core (University of Texas Southwestern Medical Center) using the EnVison multimode plate reader (Perkin Elmer).
# [3] = system: NAD levels in doxorubicin-treated U2OS cells; assay: NAD rebound assay in doxorubicin-treated cells (NAD/NADH Glo); format: cell-based; details: 0.5 μM doxorubicin 45 h
# Procedure: FIG. 12. Five-point dose response curves (DRC) of all tested compounds in NAD rebound assay. […] Cellular NAD abundance was determined by NAD/NADH Glo assay kit.
# Each chemical variant of P7C3 was co-incubated with doxorubicin on cultured U2OS cells at five doses (0.03 uM, 0.1 uM, 0.3 uM, 1 uM and 3 uM). After 45 hrs incubation, cells were assayed for intracellular levels of NAD (FIG. 12).
# Assay was performed following the manufacturer's protocol. NAD/NADH-Glo reagent contains the NAD Cycling Enzyme that converts NAD+ to NADH. In the presence of NADH, the enzyme reductase reduces a proluciferin reductase substrate to form luciferin. Cells were grown in 96- or 384-well plates. 50 μl or 15 μl of NAD/NADH-Glo™ Detection Reagent were added to each well. The resulting luminescence signals were measured by Tecan plate reader or EnVison multimode plate reader (Perkin Elmer).
# [4] = system: U2OS cells; assay: cell survival assay with seven other toxins; format: cell-based; details: 5 μM P7C3-A20 2 h prior to toxins for 72 h
# Procedure: FIG. 8. P7C3A20 protects U2OS cells from doxorubicin-mediated toxicity. U2OS cells were treated with 5 μM P7C3-A20 for 2 h prior to incubation with the indicated concentrations of eight toxins for 72 h.
# (§2) Progress on studies aimed towards resolving the mode of action of P7C3 has been hampered by the fact that we have been limited to studies of drug action in living animals. Our standard assay of neurogenesis requires, under optimal conditions, a one month turn-around from the synthesis of a new derivative to a score for its neuroprotective activity. In efforts to break this logjam, we tested whether P7C3 might have cell-protective activity to any of eight generic toxins.
# as §1, with “Plates were incubated at room temperature for 10 minutes.” left out
# [5] = system: U2OS cells; assay: western blotting of caspase-3 activation and γ-H2AX after doxorubicin; format: cell-based
# Procedure: FIGS. 9A-9B. […] (FIG. 9A) U2OS cells were treated with increasing concentrations of P7C3-A20 for 2 h prior to exposure to 0.5 μM doxorubicin for another 2 h. Cells were harvested and subjected to western blotting with the DNA damage marker, γ-H2AX. Actin was served as loading control. (FIG. 9B) U2OS cells were treated with P7C3-A20 and doxorubicin for the indicated time. Caspase-3 activation was determined by western blotting. Caspase-3 cleavage was observed when treated with doxorubicin alone at 60 h, but was prevented in the presence of P7C3-A20.
# as §2
# [6] = system: NAD in U2OS cells; assay: intracellular NAD abundance by LC-MS/MS; format: cell-based; details: U2OS cells exposed to sub-lethal doxorubicin
# Procedure: FIGS. 5A-5C. Active variants of P7C3 compensate NAD exhaustion induced by doxorubicin. (FIG. 5A) U2OS cells were treated with the indicated concentration of P7C3-A20. Cells were harvested and NAD metabolites were measured by LC-MS/MS. Abundance of NAD was normalized relative to total metabolites (Experimental Procedures). The data are represented as the mean±SD of experimental duplicates. […] Cells were grown in 96-well plates and treated with the indicated concentrations of P7C3-A20, P7C3-S243, P7C3-S6 or P7C3-S117 together with 0.5 μM doxorubicin for 45 h. Cellular NAD abundance was determined by NAD/NADH Glo assay kit. […] The activities in both assays are represented by (Sinf−S0)/AC50 in dose response curves of test compounds.
# Doxorubicin is a DNA-damaging toxin known to activate the poly ADP-ribose polymerase (PARP) enzyme as a central feature of DNA repair (Pacher et al., 2002) (Munoz-Gamez et al., 2009). […] U2OS cells exposed to sub-lethal levels of doxorubicin were lysed in methanol, cleared by centrifugation and subjected to metabolite analysis by mass spectrometry. These methods allow for the simultaneous, quantitative analysis of hundreds of intracellular metabolites (Tu et al., 2007) (Wang et al., 2009). […] The mass spectrometry methods used to quantitate metabolite levels measured NAD relative to hundreds of other intracellular metabolites. […]
structure (smiles),measurement,setting,value
COc1cccc(NCC(F)Cn2c3ccc(Br)cc3c3cc(Br)ccc32)c1 (stereo not shown) [S10],Neurogenesis # BrdU+ Cells (X10E06)/mm3 Dentate Gyrus,[1],19.0 (X10E06)/mm3
same,protection from doxorubicin-mediated toxicity (dox:tox assay),[2],protect cultured U2OS cells from doxorubicin-mediated toxicity
same,rebound of NAD levels (NAD/NADH-Glo kit),[3],rebound of NAD levels
same,protection from seven other toxins,[4],no evidence of drug-mediated protection
same,DNA damage response (phosphorylation of H2AX),[5]; 0.5 μM doxorubicin,not DNA damage response
same,doxorubicin-induced apoptosis (caspase-3 activation),[5]; co-administration with doxorubicin,blocked doxorubicin-induced apoptosis
same,NAD level relative to total metabolites,[6],dose-dependent replenishment of NAD
